What was measured:
Type in all cases: cell-based
[1] = tested on: MDA-MB-468; test: Inhibition of proliferation of MDA-MB-468 cells by test compounds (CellTiter-Glo, 72 h); details: MDA-MB-468, 72 h incubation
Description: 3: Test method • (1) Cell plating: first, tumor cells MDA-MB-468 were cultured using a corresponding culture medium, trypsinized, centrifuged, resuspended for counting, adjusted to an appropriate concentration, and then plated on a 384-well plate. • (2) Co-incubation of the compounds and tumor cells: after the cells adhered to the wall, 100 nL of a diluted bioactive substance (test compound) was added to the cell culture plate using ECHO, the final concentration of DMSO in wells of the cell plate was 0.33%, and the incubation was performed in an incubator at 37°C with […] for 72 h. • (3) After the incubation was complete, 30 µL of a CTG reagent (CelltiterGlo kit) was added to each well. The culture was oscillated on a fast oscillator for 2 min, centrifuged at 1,000 rpm for 1 min, and kept away from light at room temperature for 30 min. The chemiluminescence signal value was read using an Envision instrument. • (4) Cell viability detection: IC50 was calculated using GraphPad Prism 8 software, and the IC50 of the compounds was obtained using the following nonlinear fitting formula (see Table 2): • 6. Y=Bottom+(Top-Bottom)/(1+10^((LogIC50-X)*HillSlope)) • 7. […] Table 2 Antiproliferative activity of test compounds on MDA-MB-468

[2] = tested on: NCI-N87; test: Inhibition of proliferation of NCI-N87 cells by test compounds (CellTiter-Glo, 72 h); details: NCI-N87, 72 h incubation
Description: 3: Test method (1) Cell plating: first, tumor cells NCI-N87 were cultured using a corresponding culture medium, trypsinized, centrifuged, resuspended for counting, adjusted to an appropriate concentration, and then plated on a 384-well plate. (2) Co-incubation of the compounds and tumor cells: after the cells adhered to the wall, 100 nL of a diluted bioactive substance (test compound) was added to the cell culture plate using ECHO, the final concentration of DMSO in wells of the cell plate was 0.33%, and the incubation was performed in an incubator at 37°C with […] for 72 h. (3) After the incubation was complete, 30 µL of a CTG reagent (CelltiterGlo kit) was added to each well. The culture was oscillated on a fast oscillator for 2 min, centrifuged at 1,000 rpm for 1 min, and kept away from light at room temperature for 30 min. The chemiluminescence signal value was read using an Envision instrument. (4) Cell viability detection: IC50 was calculated using GraphPad Prism 8 software, and the IC50 of the compounds was obtained using the following nonlinear fitting formula (see Table 3) : 11. Y=Bottom+(Top-Bottom)/(1+10^((LogIC50-X)*HillSlope)) 12. […] Table 3 Antiproliferative activity of test compounds on cells NCI-N87

[3] = tested on: SK-BR-3; test: Inhibition of proliferation of SK-BR-3 cells by compounds (CellTiter-Glo, 72 h); details: SK-BR-3, 72 h incubation
Description: 3: Test method (1) Cell plating: first, tumor cells SK-BR-3 were cultured using a corresponding culture medium, trypsinized, centrifuged, resuspended for counting, adjusted to an appropriate concentration, and then plated on a 384-well plate. (2) Co-incubation of the compounds and tumor cells: after the cells adhered to the wall, 100 nL of a diluted bioactive substance (test compound) was added to the cell culture plate using ECHO, the final concentration of DMSO in wells of the cell plate was 0.33%, and the incubation was performed in an incubator at 37°C with 5% CO2 for 72 h. (3) After the incubation was complete, 30 µL of a CTG reagent (CelltiterGlo kit) was added to each well. The culture was oscillated on a fast oscillator for 2 min, centrifuged at 1,000 rpm for 1 min, and kept away from light at room temperature for 30 min. The chemiluminescence signal value was read using an Envision instrument. (4) Cell viability detection: IC50 was calculated using GraphPad Prism 8 software, and the IC50 of the compounds was obtained using the following nonlinear fitting formula (see Table 1) : 1. Y=Bottom+(Top-Bottom)/(1+10^((LogIC50-X)*HillSlope)) 2. […] Table 1 Antiproliferative activity of test compounds on SK-BR-3

Compound	IC50 [1] [nM]	IC50 [2] [nM]	IC50 [3] [nM]	IC50 ([1]; Homo sapiens, MDA-MB-468, 72 h) [nM]	IC50 ([2]; Homo sapiens, NCI-N87, 72 h) [nM]	IC50 ([3]; Homo sapiens, SK-BR-3, 72 h) [nM]
C=Cc1c(F)cc2nc3c(c4c2c1CCC4NC(=O)C[C@@H](C)O)Cn1c-3cc2c(c1=O)COC(=O)[C@]2(O)CC (stereo partly drawn) [7-2, (R)-N-((1R,9S)-9-ethyl-5-fluoro-9-hydroxy-10,13-dioxo-4-vinyl-2,3,9,10,13,15-hexahydro-1H,12H-benzo[de]pyrano[3',4',6,7]indolizino[1,2-b]quinolin-1-yl)-3-hydroxybutanamide]	4.4	4.9	7.6			
CC[C@@]1(O)C(=O)OCc2c1cc1n(c2=O)Cc2c-1nc1cc(F)c(OCC(F)(F)F)c3c1c2C(NC(=O)C[C@@H](C)O)CC3 (stereo partly drawn) [8-1, (R)-N-((1S,9S)-9-ethyl-5-fluoro-9-hydroxy-10,13-dioxo-4-(2,2,2-trifluoroethoxy)-2,3,9,10,13,15-hexahydro-1H,12H-benzo[de]pyrano[3',4',6,7]indolizino[1,2-b]quinolin-1-yl)-3-hydroxybutanamide]	13	4.2	44			
CC[C@@]1(O)C(=O)OCc2c1cc1n(c2=O)Cc2c-1nc1cc(F)c(C)c3c1c2[C@H](NC(=O)C[C@@H](C)O)CCO3 [24-1, (R)-N-((1R,10S)-10-ethyl-6-fluoro-10-hydroxy-5-methyl-11,14-dioxo-2,3,10,11,14,16-hexahydro-1H,13H-oxepino[4,3,2-de]pyrano[3',4':6,7]indolizino[1,2-b]quinolin-1-yl)-3-hydroxybutanamide]				38	65	47
CC[C@@]1(O)C(=O)OCc2c1cc1n(c2=O)Cc2c-1nc1cc(F)c(C)c3c1c2[C@@H](NC(=O)C[C@@H](C)O)CCO3 [24-2, (R)-N-((1S,10S)-10-ethyl-6-fluoro-10-hydroxy-5-methyl-11,14-dioxo-2,3,10,11,14,16-hexahydro-1H,13H-oxepino[4,3,2-de]pyrano[3',4':6,7]indolizino[1,2-b]quinolin-1-yl)-3-hydroxybutanamide]				14	24	16
CC[C@@]1(O)C(=O)OCc2c1cc1n(c2=O)Cc2c-1nc1cc(F)c(C)c3c1c2[C@@H](NC(=O)[C@H](O)C1CC1)CCO3 [35-1, (R)-2-cyclopropyl-N-((1S,10S)-10-ethyl-6-fluoro-10-hydroxy-5-methyl-11,14-dioxo-2,3,10,11,14,16-hexahydro-1H,13H-oxepino[4,3,2-de]pyrano[3',4':6,7]indolizino[1,2-b]quinolin-1-yl)-2-hydroxyacetamide]				12	14	16
CC[C@@]1(O)C(=O)OCc2c1cc1n(c2=O)Cc2c-1nc1cc(F)c(C)c3c1c2[C@@H](NC(=O)[C@@H](O)C1CC1)CCO3 [35-2, (S)-2-cyclopropyl-N-((1S,10S)-10-ethyl-6-fluoro-10-hydroxy-5-methyl-11,14-dioxo-2,3,10,11,14,16-hexahydro-1H,13H-oxepino[4,3,2-de]pyrano[3',4':6,7]indolizino[1,2-b]quinolin-1-yl)-2-hydroxyacetamide]				9	10	9
CC[C@@H](O)CC(=O)N[C@H]1CCCc2c(C)c(F)cc3nc4c(c1c23)Cn1c-4cc2c(c1=O)COC(=O)[C@]2(O)CC [36-1, (R)-N-((1S,10S)-10-ethyl-6-fluoro-10-hydroxy-5-methyl-11,14-dioxo-1,2,3,4,10,11,14,16-octahydro-13H-cyclohepta[3',4':6,7]indolizino[1,2-b]quinolin-1-yl)-3-hydroxypentanamide]	14	8.5	9.2			
CC[C@H](O)CC(=O)N[C@H]1CCCc2c(C)c(F)cc3nc4c(c1c23)Cn1c-4cc2c(c1=O)COC(=O)[C@]2(O)CC [36-2, (S)-N-((1S,10S)-10-ethyl-6-fluoro-10-hydroxy-5-methyl-11,14-dioxo-1,2,3,4,10,11,14,16-octahydro-13H-cyclohepta[3',4':6,7]indolizino[1,2-b]quinolin-1-yl)-3-hydroxypentanamide]	6.4	3.9	4.4			
CC[C@@]1(O)C(=O)OCc2c1cc1n(c2=O)Cc2c-1nc1cc(F)c(C)c3c1c2[C@@H](NC(=O)C[C@@H](O)C(C)C)CCC3 [37-2, (R)-N-((1S,10S)-10-ethyl-6-fluoro-10-hydroxy-5-methyl-11,14-dioxo-1,2,3,4,10,11,14,16-octahydro-13H-cyclohepta[3',4':6,7]indolizino[1,2-b]quinolin-1-yl)-3-hydroxy-4-methylpentanamide]	6.6	3.2	6.6			
(R)-2-cyclopropyl-N-((1S,10S)-5-cyclopropyl-10-ethyl-6-fluoro-10-hydroxy-11,14-dioxo-1,2,3,4,10,11,14,16-octahydro-13H-cyclohepta[3',4':6,7]indolizino[1,2-b]quinolin-1-yl)-2-hydroxyacetamide [33-1]	6	8	7.8			
(R)-3-cyclopropyl-N-((1S,10S)-10-ethyl-6-fluoro-10-hydroxy-5-methyl-11,14-dioxo-1,2,3,4,10,11,14,16-octahydro-13H-cyclohepta[3',4':6,7]indolizino[1,2-b]quinolin-1-yl)-3-hydroxypropanamide [38-1]	13	7.5	12			
(S)-2-cyclopropyl-N-((1S,10S)-5-cyclopropyl-10-ethyl-6-fluoro-10-hydroxy-11,14-dioxo-1,2,3,4,10,11,14,16-octahydro-13H-cyclohepta[3',4':6,7]indolizino[1,2-b]quinolin-1-yl)-2-hydroxyacetamide [33-2]	5	9	8.4			
(S)-3-cyclopropyl-N-((1S,9S)-4-cyclopropyl-9-ethyl-5-fluoro-9-hydroxy-10,13-dioxo-2,3,9,10,13,15-hexahydro-1H,12H-benzo[d]pyrano[3',4':6,7]indolizino[1,2-b]quinolin-1-yl)-3-hydroxypropanamide [34-1]	4	6	5.1			
(S)-3-cyclopropyl-N-((1S,10S)-10-ethyl-6-fluoro-10-hydroxy-5-methyl-11,14-dioxo-1,2,3,4,10,11,14,16-octahydro-13H-cyclohepta[3',4':6,7]indolizino[1,2-b]quinolin-1-yl)-3-hydroxypropanamide [38-2]	5.7	2.9	5.4			
(S)-N-((1S,10S)-10-ethyl-6-fluoro-10-hydroxy-5-methyl-11,14-dioxo-1,2,3,4,10,11,14,16-octahydro-13H-cyclohepta[3',4':6,7]indolizino[1,2-b]quinolin-1-yl)-3-hydroxy-4-methylpentanamide [37-1]	19	8.6	19			
